Where a SMILES comes first, the peptide text is derived from it. Bridges are numbered along the chain shown (N, C = ends). [ ]: non-standard residue; d: D form.
Tests used:
[1] = test system: gastric HCl secretion induced by the C-terminal tetrapeptide of gastrin; assay: in vivo inhibition of gastric acid secretion in dogs with chronic fistula and Heidenhain pouch; parameters: species or system dog
Description: D-Val^1 -somatostatin was tested in dogs for its in vivo inhibition of gastric acid secretion. In six dogs with chronic fistula and Heidenhain pouch, gastric HCl secretion was induced by infusion of the C-terminal tetrapeptide of gastrin at 0.5 μg/kg-hr. Each dog served as its own control, receiving on a separate day only the tetrapeptide. On another day, the six dogs received the tetrapeptide, and, after one hour of steady state secretion of HCl, D-Val^1 -somatostatin was infused at 0.75 μg/kg-hr. for one hour. Collection of gastric acid samples was continued for an additional 1.5 hours at 15 minute intervals. The samples were titrated to pH 7 with an automatic titrator. The maximal inhibitory effect of the D-Val^1 -somatostatin was extrapolated against the dose-response curve of somatostatin, and the relative potency of the analog to that of somatostatin is expressed as percent activity. D-Val^1 -somatostatin inhibited steady state acid secretion induced by the C-terminal tetrapeptide of gastrin by 85.1 ± 6.0% standard error of mean. This effect is equivalent to that of 0.935 μg/kg-hr. of somatostatin. Its activity relative to that of somatostatin thus is 125%.

[2] = test system: gut motility (pylorus, duodenum, antrum pressure); assay: action on gut motility in conscious dogs (intralumenal pressure); assay type: in vivo, dog; conditions: three conscious dogs; intravenous infusion over ten minutes
Description: D-Val^1 -somatostatin also was tested for its action on gut motility in conscious dogs. Three dogs having intralumenal catheters placed in the antrum, duodenum, and pylorus were used. Pressure changes in the gut lumen were recorded on a Visicorder using strain gauges and miniature light beam galvanometers. After a steady state control was established, D-Val^1 -somatostatin was infused intravenously over a ten minute period. […] The minimum effective dose required to increase the pyloric pressure and to decrease the duodenum and antrum pressures was <0.125 μg./kg.-10 minutes. This compares to an activity for somatostatin itself of 0.125 to 0.25 μg./kg.-10 minutes.

[3] = test system: secretion from the pancreas induced by secretin and cholecystokinin; assay: inhibition of pancreatic secretion in dogs with pancreatic and total gastric fistula; assay type: in vivo, dog; conditions: three dogs; 0.75 μg/kg-hr. for one hour
Description: In three dogs having both pancreatic and total gastric fistula, secretion from the pancreas was induced by infusion of secretin at 2 units/kg-hr. and cholecystokinin at 0.45 unit/kg-hr., and secretion of gastric HCl by infusion of tetragastrin at 0.5 μg/kg-hr. After a steady response was established, each dog received D-Val^1 -somatostatin for one hour at 0.75 μg/kg-hr. The peak inhibitory effect expressed as percent change over control for total protein was -51%

growth hormone secretion = assay: inhibition of pentobarbital-stimulated growth hormone release in rats; assay type: in vivo, rat; conditions: serum GH 20 minutes after dosing
Description: D-Val^1 -somatostatin also was tested for its activity with respect to the release of growth hormone. The procedure which was employed is carried out using normal male SpragueDawley rats weighing 100-120 grams (Laboratory Supply Company, Indianapolis, Indiana). The test is a modification of the method of P. Brazeau, W. Vale, and R. Guilleman, Endocrinology, 94 184 (1974). In this assay, five groups of eight rats each were employed. Sodium pentobarbital was administered intraperitoneally to all of the rats to stimulate growth hormone secretion. One group served as the control and received only saline. Two of the groups received somatostatin, one at 2 μg./rat, subcutaneously, and the other at 50 μg./rat, subcutaneously. The other two groups received D-Val^1 -somatostatin, one at 2 μg./rat, subcutaneously, and the other at 50 μg./rat, subcutaneously. The serum concentration of growth hormone was measured 20 minutes after simultaneous administration of sodium pentobarbital and test compound. The degree of inhibition of serum growth hormone concentration then was determined with respect to the control group, and the relative activities of D-Val^1 -somatostatin and somatostatin itself were compared.

Structure (SMILES): CC(C)[C@@H](N)C(=O)NCC(=O)N[C@H]1CSSC[C@@H](C(=O)O)NC(=O)[C@H](CO)NC(=O)[C@H]([C@@H](C)O)NC(=O)[C@H](Cc2ccccc2)NC(=O)[C@H]([C@@H](C)O)NC(=O)[C@H](CCCCN)NC(=O)[C@H](Cc2c[nH]c3ccccc23)NC(=O)[C@H](Cc2ccccc2)NC(=O)[C@H](Cc2ccccc2)NC(=O)[C@H](CC(N)=O)NC(=O)[C@H](CCCCN)NC1=O [D-Val^1 -somatostatin] (H-[dV]GCKNFFWKTFTSC-OH; disulfide 3-14)
- equivalent dose of somatostatin giving the same effect ([1]; extrapolated against the dose-response curve of somatostatin, analog at 0.75 μg/kg-hr.): 0.935 μg/kg-hr.
- activity relative to that of somatostatin ([1]; gastric acid secretion, dogs): 125%
- inhibition of steady state acid secretion induced by the C-terminal tetrapeptide of gastrin ([1]; six dogs, infused at 0.75 μg/kg-hr. for one hour, maximal inhibitory effect, ± standard error of mean): 85.1 ± 6.0%
- effect on intralumenal pressure [2]: initially increased the intralumenal pressure in the pylorus and then decreased it whereas the pressure in the duodenum and the antrum remained depressed throughout the test
- minimum effective dose required to increase the pyloric pressure and to decrease the duodenum and antrum pressures [2]: < 0.125 μg./kg.-10 minutes
- peak inhibitory effect expressed as percent change over control for total protein [3]: -51%
- inhibition of the increase in growth hormone secretion over control (growth hormone secretion; 2 μg./rat subcutaneously): 2%
- inhibition of the increase in growth hormone secretion over control (growth hormone secretion; 50 μg./rat subcutaneously): 73%

— US4100117A, “Somatostatin analogs and intermediates thereto” (Eli Lilly and Company, priority 1977, dated 1978)
